Measured values as given in PubChem BioAssay (NCI).
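Protocol summary: plate cells (96-well), add compound at 5 concentrations, incubate 48 h, interpolate endpoints linearly. TGI marks complete inhibition of growth.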

Legend:
Experiment in all cases: NCI-60 cell line screen, 48 h
COLO 205 colon = test system: COLO 205 colon
HT29 colon = test system: HT29 colon
NCI-H226 lung = test system: NCI-H226 lung
RPMI-8226 leukemia = test system: RPMI-8226 leukemia
SN12C renal = test system: SN12C renal
SNB-75 CNS = test system: SNB-75 CNS
UACC-62 melanoma = test system: UACC-62 melanoma
RXF 393 renal = test system: RXF 393 renal
SF-295 CNS = test system: SF-295 CNS
SK-OV-3 ovarian = test system: SK-OV-3 ovarian

| Compound | TGI (COLO 205 colon) [µM] | TGI (HT29 colon) [µM] | TGI (NCI-H226 lung) [µM] | TGI (RPMI-8226 leukemia) [µM] | TGI (SN12C renal) [µM] | TGI (SNB-75 CNS) [µM] | TGI (UACC-62 melanoma) [µM] | TGI (RXF 393 renal) [µM] | TGI (SF-295 CNS) [µM] | TGI (SK-OV-3 ovarian) [µM] |
| --- | --- | --- | --- | --- | --- | --- | --- | --- | --- | --- |
| O=c1[nH]c(NCCCCCO)nc2nc[nH]c12 | > 100 | > 100 | > 100 | > 100 | > 100 | > 100 | > 100 | – | – | – |
| CC1=NN(C(=O)CC(=O)Nc2cccc(C)c2)C(=O)C1N=Nc1ccc(C(=O)O)cc1 (centres undefined) | > 100 | > 100 | – | > 100 | > 100 | > 100 | > 100 | > 100 | > 100 | – |
| N=C(N)c1ccc(N=Nc2c(O)c(C(=O)Nc3ccccc3)cc3ccccc23)cc1 | > 76.9 | 42.4 | > 100 | 77.7 | 54.5 | 52.2 | > 100 | > 68.4 | > 100 | > 90.8 |
| N#Cc1cc2c(n(C3OC(CO)C(O)C(O)C3O)c1=S)CCC2 (centres undefined) | > 100 | > 100 | > 100 | > 100 | > 100 | > 100 | > 100 | > 100 | > 100 | – |
| CC1=NN(c2cc(Cl)c(S(=O)(=O)O)cc2Cl)C2(C1)C(Cl)C(=O)N2c1nc2ccccc2s1 (centres undefined) | > 100 | > 100 | > 100 | > 100 | > 100 | > 100 | > 100 | > 100 | – | – |
| Clc1ccc(-c2nn3c(COc4ccc(OCc5nnc6sc(-c7ccc(Cl)cc7)nn56)c(Cl)c4)nnc3s2)cc1 | > 100 | 36.7 | > 100 | > 100 | > 100 | 29.8 | > 100 | 44.1 | > 100 | > 100 |
| C/C(=C\C(=O)O)C(=O)N(C)c1ccccc1I | > 100 | – | > 100 | > 100 | > 100 | > 100 | > 100 | > 100 | > 100 | > 100 |
| CN(C)CCCNC(=O)N/N=C/c1ccccn1 | > 10 | > 10 | – | > 10 | > 10 | > 10 | > 10 | > 10 | > 10 | > 10 |
| COc1cc2ccc(C(C)NCC#N)cc2cc1OC (centres undefined) | > 100 | > 100 | > 100 | > 100 | > 100 | > 100 | > 100 | > 100 | > 100 | > 100 |
| Fc1cccc(C2ON=C(c3ccccc3)N2C23CC4CC(CC(C4)C2)C3)c1 (centres undefined) | > 10 | > 10 | > 10 | > 10 | > 10 | > 10 | > 10 | > 10 | > 10 | > 10 |
| Cc1cc(C)n(C(=CC(=O)C(Cl)Cl)n2nc(C)cc2C)n1 | 40 | – | 2.56 | 3.69 | – | > 100 | 7.84 | – | 31.7 | > 100 |
| FC(F)(Sc1ncccn1)c1nc2ccccc2o1 | > 100 | > 100 | > 100 | > 100 | > 100 | 81.2 | > 100 | > 100 | > 100 | > 100 |
| CC1(O)CC23CC(O)C4(O)C(CC(O)C4(C)C)C(C)(O)C2CCC1C3O (centres undefined) | > 100 | > 100 | > 100 | – | > 100 | – | > 100 | – | > 100 | > 100 |
| COc1cc(-c2cc(OC)c(OC)c3ccc(Br)cc23)c2cc(Br)ccc2c1OC | > 100 | > 100 | 58.1 | 51.7 | 81.6 | – | 47.7 | 41 | 43.8 | 71.8 |
| Cc1c(-c2ccccc2)oc(=O)c2ccccc12 | 33.7 | 34.6 | 40.3 | 36.5 | 38.1 | 31.1 | 33 | 37.7 | 40.2 | 54.4 |
| O=c1c2ccccc2n2nnc3ccc(NCCNCCO)c1c32 | 4.09 | 6.49 | 5.06 | 13.7 | 13.1 | 7.54 | 8.68 | 7.24 | 9.82 | 16.5 |
| N#CC(C#N)=C/C=C/c1ccccc1[N+](=O)[O-] | > 10 | > 10 | > 10 | > 10 | > 10 | > 10 | 9.39 | 9.53 | > 10 | > 10 |
| COc1ccccc1-c1cc(=O)c2cccnc2[nH]1 | 96 | > 100 | > 100 | > 100 | > 100 | – | > 100 | > 100 | > 100 | > 100 |
| CSC1=C(C)C(/C=N/Nc2ccc([N+](=O)[O-])cc2)=C(C)N(c2ccccc2)S1(=O)=O | > 100 | > 100 | > 100 | > 100 | > 100 | > 100 | > 100 | > 100 | > 100 | > 100 |
| Nc1ncnc2c1ncn2C1C(O)C=C(CO)C1O (centres undefined) | > 625 | > 625 | > 625 | > 625 | > 625 | – | > 625 | – | > 625 | > 625 |
| CCCCCCCCCCCCCCCCOC[C@H](COC(c1ccccc1)(c1ccccc1)c1ccccc1)O[P+](=S)OC (some centres undefined) | > 100 | > 100 | > 100 | > 100 | > 100 | > 100 | > 100 | > 100 | > 100 | > 100 |
| COc1ccc(/C=C2\N=C3N(Cc4ccccc4)C=C(N)N3C2=O)cc1 | > 100 | > 100 | > 100 | – | > 100 | 50.7 | > 100 | > 100 | > 100 | > 100 |
